“And” between values parts separate entries of the source, which are not always exact repeats. Identical values can stand only once. Like-named read-outs stand apart in the source and are kept apart here.
Columns and labels:
[1] = Cannabinoids and Δ^9-THC metabolites in capillary blood (LC-HRMS); details: pre-smoking
Description: The complex nature of cannabinoid pharmacokinetics and pharmacodynamics calls for a new approach for effectively determining recent use of cannabis within the impairment window. We sought to develop a multiple-parameter test based on pharmacological changes in Δ^9-THC and its metabolites in blood over time. This approach requires the collection of two samples separated by a known time interval, which is a critical difference compared to current blood testing methods that rely on the collection of a single sample. The two-sample strategy makes possible the detection of Δ^9-THC in its distribution phase where the half-life is very short [Moeller M R. et al., J Forensic Sci 37:969-83 (1992); Wall M E. et al., Clin Pharmacol Ther 34:352-63 (1983)], which occurs only within the first few hours after smoking, and for the evaluation of how Δ^9-THC metabolite levels in blood are changing with time relative to Δ^9-THC. A liquid chromatography high-resolution mass spectrometry (LC-HRMS) bioanalytical method for the quantification of cannabinoids in microsamples (50 μL) of whole blood was developed and validated for this purpose [DeGregorio M W. et al., J AOAC Int 103:725-35 (2020)].
A total of 92 subjects were included in clinical trials designed to evaluate the feasibility of the described method for determining recent cannabis use (blood-based study in 48 subjects) and recent cannabis use and impairment (breath- and blood-based study in 44 subjects). Each subject was given a single cannabis cigarette and instructed to smoke as much of it as possible within a 10-minute period. Cigarettes containing 500 mg of dried cannabis flower were prepared immediately before each smoking session. During the studies, subjects were given a variety of cannabis chemovars to smoke, with Δ^9-THC content ranging from a low of 8.5% to a high of 28.4%. A wide variety of chemovars was included to account for the variability in Δ^9-THC potencies available in numerous cannabis retail establishments in the various U.S. states where recreational and/or medicinal cannabis has been legalized. Capillary blood samples ([…] collected at various time points prior to smoking and up to 200 minutes after smoking, were obtained from a total of 92 subjects using a variety of methods including lancets and two types of automated blood collection devices. Exhaled breath samples were collected from a total of 44 subjects at various time points prior to smoking and up to 240 minutes post-smoking. Breath samples were collected using devices equipped with electrostatic polymer filters and that are designed to collect approximately 20 L of exhaled breath through normal breathing. The time required for breath sample collection was approximately 2-3 minutes. A total of 74 subjects were asked to self-assess their level of impairment before smoking and at each designated sampling time point after smoking based on a scale ranging from 0 (not impaired) to 10 (very impaired) as shown in FIG. 2. As a physical indicator of impairment, 44 subjects were evaluated for horizontal gaze nystagmus.
One of the first endpoints investigated during clinical development of the recent use test method was whether there is any relationship between blood Δ^9-THC levels and impairment. Prior to smoking, Δ^9-THC blood concentrations were evaluated in a group of 30 subjects before and up to 200 minutes after smoking a 500-mg cannabis cigarette and compared to a common legal limit (5 ng/mL) for establishing driver impairment due to cannabis.

[2] = Cannabinoid half-lives in exhaled breath, multi-point breath sampling; format: in vivo, human; details: for Cannabinoid Half-Lives (min) in breath, back-to-back sampling: individual subject; for half-life: human, exhaled breath, inhaled, 500 mg
Procedure: (§1) The positive recent use test results outside of the three-hour impairment window based on blood sampling alone led to the incorporation of a second testing matrix, exhaled breath, to strengthen the results of the test method so that cannabis users who are within the impairment window after smoking can be more accurately identified. For this purpose, a total of 44 additional subjects were evaluated in a smoking study in which both exhaled breath and blood samples were collected and then analyzed by LC-HRMS for cannabinoids and Δ^9-THC metabolites. As with the 48-subject blood-based study, subjects were given a 500-mg cannabis cigarette to smoke, and breath and blood samples were collected at various time points before and after smoking.
These included the presence of CBN, CBC, CBG, Δ^9-THCV, and CBGA, and short half-lives (<60 minutes) for Δ^9-THC, CBN, CBC, CBG, and Δ^9-THCV (see Table 5 below). […] Pre-smoking, half-lives were calculable for Δ^9-THC in only three subjects.
Evidence of recent cannabis use by inhalation through smoking or vaping dissipates rapidly in exhaled breath, and thus allowing 20 minutes between breath samplings, which was employed in the blood-based study and for most of the subjects in the blood and breath-based study, may result in the loss of valuable data. In the last nine subjects involved in the exhaled breath study, a back-to-back sample collection strategy was employed whereby two exhaled breath samples were collected in quick succession at 20 and 40 minutes post-smoking. Approximately two minutes elapsed between the collection of each sample. The very short half-lives observed for Δ^9-THC, CBN, and other cannabinoids (approximately five minutes or less) in exhaled breath would allow for rapid sampling (see Table 6 below).

[3] = Presence of cannabinoids in exhaled breath before and after smoking (LC-HRMS); format: in vivo, human
Procedure: as §1

[4] = Stability of target analytes in the breath collection device; format: physicochemical
Description: In particular, CBN, CBG, and Δ^9-THCV all have a much greater incidence in breath during peak impairment (the first hour after smoking) compared to pre-smoking. […] Stability of the analytes within the breath collection devices was previously established (see Table 4 below).

[5] = 20 Minutes Post-Smoking, read-out: Cannabinoid Half-Lives (min) in breath, back-to-back sampling, Average
[6] = 40 Minutes Post-Smoking, read-out: Cannabinoid Half-Lives (min) in breath, back-to-back sampling, Average
[7] = Day 3, breath collection device
[8] = Day 7, breath collection device
[9] = Day 10, breath collection device
[10] = Day 14, breath collection device
[11] = Day 30, breath collection device
[12] = 0-10 Minutes Post-Smoking, read-out: Average Half-Life (minutes ± SD) in breath
[13] = 0-20 Minutes Post-Smoking, read-out: Average Half-Life (minutes ± SD) in breath

C=C(C)[C@@H]1CCC(C)=C[C@H]1c1c(O)cc(CCCCC)c(C(=O)O)c1O [CBDA, cannabidiolic acid]
detection in subjects' blood samples at baseline prior to smoking [1]: detected

CCCCCc1cc(O)c2c(c1)OC(C)(C)c1ccc(C)cc1-2 [CBN, cannabinol]
detection in subjects' blood samples at baseline prior to smoking [1]: detected | Cannabinoid Half-Lives (min) in breath, back-to-back sampling ([2]; 20 Minutes Post-Smoking): 2.0 min and 2.3 min and 1.8 min and 6.4 min and 1.1 min | Cannabinoid Half-Lives (min) in breath, back-to-back sampling ([2]; 40 Minutes Post-Smoking): 2.9 min and 4.8 min and 10.7 min | half-lives observed in exhaled breath ([2]; approximate, summary statement): five | half-life ([2]; 20-60 Minutes Post-Smoking, read-out: Average Half-Life (minutes ± SD) in breath): 35.2 min | half-life [2, 5]: 2.7 min | half-life ([2]; 40-60 Minutes Post-Smoking, read-out: Average Half-Life (minutes ± SD) in breath): 12.8 min | half-life [2, 6]: 6.1 min | Presence in exhaled breath, Percent (%) Positivity ([3]; >60 minutes after smoking): (10.0%) | Presence in exhaled breath, positive/evaluable subjects ([3]; >60 minutes after smoking): 4/40 | Presence in exhaled breath, Percent (%) Positivity ([3]; Baseline (Pre-smoking)): (2.9%) | Presence in exhaled breath, positive/evaluable subjects ([3]; Baseline (Pre-smoking)): 1/34 | Presence in exhaled breath, Percent (%) Positivity ([3]; ≤60 minutes after smoking): (92.5%) | Presence in exhaled breath, positive/evaluable subjects ([3]; ≤60 minutes after smoking): 37/40 | Analyte Stability (%) at Room Temperature (20-25° C.) [4, 7]: 104.5% | Analyte Stability (%) at Room Temperature (20-25° C.) [4, 8]: 100.0% | Analyte Stability (%) at Room Temperature (20-25° C.) [4, 9]: 107.3% | Analyte Stability (%) at Room Temperature (20-25° C.) [4, 10]: 87.9% | Analyte Stability (%) at Room Temperature (20-25° C.) [4, 11]: 74.4%

CCCCCc1cc(O)c2c(c1)OC(C)(C)C1CC(O)C(CO)=CC21 (stereo not drawn) [8β,11-dihydroxy-Δ^9-THC]
detection in subjects' blood samples at baseline prior to smoking [1]: detected

C=C(C)[C@@H]1CCC(C)=C[C@H]1c1c(O)cc(CCCCC)cc1O [CBD, cannabidiol]
detection in subjects' blood samples at baseline prior to smoking [1]: detected

CCCc1cc(O)c2c(c1)OC(C)(C)[C@@H]1CCC(C)=C[C@@H]21 [Δ^9-THCV, Δ^9-tetrahydrocannabivarin]
detection in subjects' blood samples at baseline prior to smoking [1]: detected | Average Half-Life (minutes ± SD) in breath ([2]; 0-10 Minutes Post-Smoking): 4.2 ± 3.9 min | Average Half-Life (minutes ± SD) in breath ([2]; 0-20 Minutes Post-Smoking): 2.9 ± 0.7 min | Presence in exhaled breath, Percent (%) Positivity ([3]; >60 minutes after smoking): (0%) | Presence in exhaled breath, positive/evaluable subjects ([3]; >60 minutes after smoking): 0/40 | Presence in exhaled breath, Percent (%) Positivity ([3]; Baseline (Pre-smoking)): (0%) | Presence in exhaled breath, positive/evaluable subjects ([3]; Baseline (Pre-smoking)): 0/34 | Presence in exhaled breath, Percent (%) Positivity ([3]; ≤60 minutes after smoking): (90.0%) | Presence in exhaled breath, positive/evaluable subjects ([3]; ≤60 minutes after smoking): 36/40 | Analyte Stability (%) at Room Temperature (20-25° C.) [4, 7]: 79.7% | Analyte Stability (%) at Room Temperature (20-25° C.) [4, 8]: 68.1% | Analyte Stability (%) at Room Temperature (20-25° C.) [4, 9]: 69.8% | Analyte Stability (%) at Room Temperature (20-25° C.) [4, 10]: 56.5% | Analyte Stability (%) at Room Temperature (20-25° C.) [4, 11]: 47.1%

CCCCCc1cc2c(c(O)c1C(=O)O)[C@@H]1C=C(C)CC[C@H]1C(C)(C)O2 [Δ^9-THCA, Δ^9-tetrahydrocannabinolic acid A]
detection in subjects' blood samples at baseline prior to smoking [1]: detected

CCCCCc1cc(O)c(C/C=C(\C)CCC=C(C)C)c(O)c1C(=O)O [CBGA, cannabigerolic acid]
detection in subjects' blood samples at baseline prior to smoking [1]: detected | Presence in exhaled breath, Percent (%) Positivity ([3]; >60 minutes after smoking): (10.0%) | Presence in exhaled breath, positive/evaluable subjects ([3]; >60 minutes after smoking): 4/40 | Presence in exhaled breath, Percent (%) Positivity ([3]; Baseline (Pre-smoking)): (11.8%) | Presence in exhaled breath, positive/evaluable subjects ([3]; Baseline (Pre-smoking)): 4/34 | Presence in exhaled breath, Percent (%) Positivity ([3]; ≤60 minutes after smoking): (45.0%) | Presence in exhaled breath, positive/evaluable subjects ([3]; ≤60 minutes after smoking): 18/40 | Analyte Stability (%) at Room Temperature (20-25° C.) [4, 7]: 99.4% | Analyte Stability (%) at Room Temperature (20-25° C.) [4, 8]: 110.9% | Analyte Stability (%) at Room Temperature (20-25° C.) [4, 9]: 110.4% | Analyte Stability (%) at Room Temperature (20-25° C.) [4, 11]: 114.3%

CCCCCc1cc(O)c2c(c1)OC(C)(C)[C@@H]1C[C@@H](O)C(C)=C[C@@H]21 [8β-hydroxy-Δ^9-THC]
detection in subjects' blood samples at baseline prior to smoking [1]: detected

CCCCCc1cc(O)c2c(c1)OC(C)(CCC=C(C)C)C=C2 (stereo not shown) [CBC, cannabichromene]
detection in subjects' blood samples at baseline prior to smoking [1]: detected | Cannabinoid Half-Lives (min) in breath, back-to-back sampling ([2]; 20 Minutes Post-Smoking): 2.2 min and 2.0 min and 2.7 min and 1.3 min and 11.8 min and 1.0 min | Cannabinoid Half-Lives (min) in breath, back-to-back sampling ([2]; 40 Minutes Post-Smoking): 2.3 min and 3.5 min and 5.2 min | half-life [2, 12]: 3.9 ± 2.5 min | half-life [2, 13]: 3.8 ± 2.3 min | half-life [2, 5]: 3.3 min | half-life [2, 6]: 3.6 min | Presence in exhaled breath, Percent (%) Positivity ([3]; >60 minutes after smoking): (0%) | Presence in exhaled breath, positive/evaluable subjects ([3]; >60 minutes after smoking): 0/40 | Presence in exhaled breath, Percent (%) Positivity ([3]; Baseline (Pre-smoking)): (0%) | Presence in exhaled breath, positive/evaluable subjects ([3]; Baseline (Pre-smoking)): 0/34 | Presence in exhaled breath, Percent (%) Positivity ([3]; ≤60 minutes after smoking): (97.5%) | Presence in exhaled breath, positive/evaluable subjects ([3]; ≤60 minutes after smoking): 39/40 | Analyte Stability (%) at Room Temperature (20-25° C.) [4, 7]: 100.6% | Analyte Stability (%) at Room Temperature (20-25° C.) [4, 8]: 89.1% | Analyte Stability (%) at Room Temperature (20-25° C.) [4, 9]: 89.9% | Analyte Stability (%) at Room Temperature (20-25° C.) [4, 10]: 82.2% | Analyte Stability (%) at Room Temperature (20-25° C.) [4, 11]: 75.6%

CCCCCc1cc(O)c2c(c1)OC(C)(C)[C@@H]1CCC(C(=O)O)=C[C@@H]21 [11-nor-9-carboxy-Δ^9-THC, 11-nor-9-carboxy-Δ^9-tetrahydrocannabinol]
detection in subjects' blood samples at baseline prior to smoking [1]: detected

CCCCCc1cc(O)c2c(c1)OC(C)(C)C1CCC(CO)=CC21 (stereo not shown) [11-OH-Δ^9-THC, 11-hydroxy-Δ^9-tetrahydrocannabinol]
detection in subjects' blood samples at baseline prior to smoking [1]: detected

CCCCCc1cc(O)c(C/C=C(\C)CCC=C(C)C)c(O)c1 [CBG, cannabigerol]
detection in subjects' blood samples at baseline prior to smoking [1]: detected | Cannabinoid Half-Lives (min) in breath, back-to-back sampling ([2]; 20 Minutes Post-Smoking): 1.6 min and 1.3 min and 2.6 min and 2.1 min and 0.7 min | half-life [2, 12]: 3.6 ± 2.1 min | half-life [2, 13]: 3.7 ± 3.1 min | half-life [2, 5]: 1.7 min | Presence in exhaled breath, Percent (%) Positivity ([3]; >60 minutes after smoking): (2.5%) | Presence in exhaled breath, positive/evaluable subjects ([3]; >60 minutes after smoking): 1/40 | Presence in exhaled breath, Percent (%) Positivity ([3]; Baseline (Pre-smoking)): (5.9%) | Presence in exhaled breath, positive/evaluable subjects ([3]; Baseline (Pre-smoking)): 2/34 | Presence in exhaled breath, Percent (%) Positivity ([3]; ≤60 minutes after smoking): (92.5%) | Presence in exhaled breath, positive/evaluable subjects ([3]; ≤60 minutes after smoking): 37/40 | Analyte Stability (%) at Room Temperature (20-25° C.) [4, 7]: 97.5% | Analyte Stability (%) at Room Temperature (20-25° C.) [4, 8]: 87.6% | Analyte Stability (%) at Room Temperature (20-25° C.) [4, 9]: 97.8% | Analyte Stability (%) at Room Temperature (20-25° C.) [4, 10]: 75.0% | Analyte Stability (%) at Room Temperature (20-25° C.) [4, 11]: 56.5%
